Here are results for 27 compounds from PMC12155096 (International Journal of Molecular Sciences, 2025).

Among the targets are human CYP2C19 (Homo sapiens, UniProt P33261); human CYP2C9 (Homo sapiens, UniProt P11712); CYP3A4 (Homo sapiens, UniProt P08684); human CYP2D6 (Homo sapiens, UniProt P10635).
A further data set addresses T1, human CYP1A2 (Homo sapiens, UniProt P05177).
T1 sequence (P05177 1-516): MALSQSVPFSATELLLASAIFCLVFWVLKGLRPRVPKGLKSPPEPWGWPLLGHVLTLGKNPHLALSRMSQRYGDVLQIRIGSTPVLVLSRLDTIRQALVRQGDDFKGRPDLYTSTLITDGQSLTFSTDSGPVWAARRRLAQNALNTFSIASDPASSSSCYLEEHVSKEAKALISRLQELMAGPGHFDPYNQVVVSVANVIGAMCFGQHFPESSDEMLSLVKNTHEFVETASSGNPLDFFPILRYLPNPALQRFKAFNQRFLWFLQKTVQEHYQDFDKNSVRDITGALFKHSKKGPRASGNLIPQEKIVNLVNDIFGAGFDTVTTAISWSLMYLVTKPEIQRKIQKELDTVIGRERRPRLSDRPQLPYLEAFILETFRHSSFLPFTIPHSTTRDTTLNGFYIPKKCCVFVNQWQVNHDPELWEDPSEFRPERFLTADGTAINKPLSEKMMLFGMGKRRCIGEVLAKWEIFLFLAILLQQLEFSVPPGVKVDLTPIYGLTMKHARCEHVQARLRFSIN

human CYP2C19, sequence (P33261 whole entry): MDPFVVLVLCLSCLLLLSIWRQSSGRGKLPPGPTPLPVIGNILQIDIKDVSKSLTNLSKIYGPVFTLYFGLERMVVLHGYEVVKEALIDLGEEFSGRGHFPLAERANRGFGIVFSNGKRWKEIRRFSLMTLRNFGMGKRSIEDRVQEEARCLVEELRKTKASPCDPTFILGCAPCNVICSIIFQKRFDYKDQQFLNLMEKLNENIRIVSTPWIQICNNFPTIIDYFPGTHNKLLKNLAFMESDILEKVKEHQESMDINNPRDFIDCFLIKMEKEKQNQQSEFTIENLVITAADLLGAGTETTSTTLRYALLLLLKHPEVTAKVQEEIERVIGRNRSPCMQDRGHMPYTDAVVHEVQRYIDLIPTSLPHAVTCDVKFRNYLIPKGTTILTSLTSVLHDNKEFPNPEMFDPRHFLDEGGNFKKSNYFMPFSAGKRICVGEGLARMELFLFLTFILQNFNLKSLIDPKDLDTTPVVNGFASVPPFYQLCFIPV
CYP3A4, sequence (P08684 whole entry): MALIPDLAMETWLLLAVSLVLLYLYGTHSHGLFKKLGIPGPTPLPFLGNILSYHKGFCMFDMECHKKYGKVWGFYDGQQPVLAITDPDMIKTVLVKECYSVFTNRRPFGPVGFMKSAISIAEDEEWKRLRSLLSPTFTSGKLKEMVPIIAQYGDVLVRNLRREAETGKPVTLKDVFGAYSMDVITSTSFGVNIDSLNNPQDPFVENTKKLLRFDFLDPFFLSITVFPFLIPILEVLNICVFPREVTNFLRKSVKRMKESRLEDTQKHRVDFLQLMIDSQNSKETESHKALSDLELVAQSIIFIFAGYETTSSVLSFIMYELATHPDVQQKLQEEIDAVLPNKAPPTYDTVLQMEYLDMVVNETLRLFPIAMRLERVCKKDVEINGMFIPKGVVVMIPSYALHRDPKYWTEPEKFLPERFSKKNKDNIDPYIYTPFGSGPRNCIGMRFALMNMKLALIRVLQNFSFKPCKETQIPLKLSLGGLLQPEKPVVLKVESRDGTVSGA
human CYP2D6, sequence (P10635 whole entry): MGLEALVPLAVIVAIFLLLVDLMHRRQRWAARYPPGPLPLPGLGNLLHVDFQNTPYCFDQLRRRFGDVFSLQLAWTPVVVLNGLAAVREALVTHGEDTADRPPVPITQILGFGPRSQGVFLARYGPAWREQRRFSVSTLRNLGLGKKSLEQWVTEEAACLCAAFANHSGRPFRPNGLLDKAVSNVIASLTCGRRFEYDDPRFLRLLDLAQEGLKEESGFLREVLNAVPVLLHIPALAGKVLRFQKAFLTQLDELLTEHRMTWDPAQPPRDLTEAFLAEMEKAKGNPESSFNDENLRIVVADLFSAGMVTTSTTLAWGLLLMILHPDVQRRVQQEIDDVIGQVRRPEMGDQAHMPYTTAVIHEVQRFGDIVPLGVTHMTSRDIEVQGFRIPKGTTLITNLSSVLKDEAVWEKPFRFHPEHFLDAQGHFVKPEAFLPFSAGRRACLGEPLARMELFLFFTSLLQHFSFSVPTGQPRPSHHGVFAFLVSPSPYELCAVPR
human CYP2C9, sequence (P11712 whole entry): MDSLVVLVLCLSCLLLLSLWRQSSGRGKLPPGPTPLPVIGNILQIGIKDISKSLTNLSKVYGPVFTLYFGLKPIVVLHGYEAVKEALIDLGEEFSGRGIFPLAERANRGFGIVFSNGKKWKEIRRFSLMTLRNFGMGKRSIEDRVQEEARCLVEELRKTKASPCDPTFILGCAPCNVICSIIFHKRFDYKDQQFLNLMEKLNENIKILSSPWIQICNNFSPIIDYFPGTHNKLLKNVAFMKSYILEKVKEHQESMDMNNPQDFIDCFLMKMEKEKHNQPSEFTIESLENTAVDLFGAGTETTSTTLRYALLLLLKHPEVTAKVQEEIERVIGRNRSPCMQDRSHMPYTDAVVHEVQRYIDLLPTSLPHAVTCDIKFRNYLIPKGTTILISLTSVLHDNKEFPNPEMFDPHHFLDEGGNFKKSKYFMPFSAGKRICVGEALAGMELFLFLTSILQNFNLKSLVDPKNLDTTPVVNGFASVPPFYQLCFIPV

A word on the AC50: it is the concentration at which the activity in the assay is half-maximal. Higher therefore signals activity only at high concentration. As for `Nc1ccccc1S(=O)(=O)c1ccccc1` [2-(Phenylsulfonyl)aniline], the AC50 at human CYP1A2 was found to be 50.5 µM; at human CYP2C19, 17.8 µM; at human CYP2C9 it was 8.25 µM; at CYP3A4 it was 71 µM. Moreover, the “CYP2D6 AC50 (half-maximal activity concentration)” value (from here on “CYP2D6 AC50”) on human CYP2D6 was “Inactive”.

As to `CC(C)c1ccc2sc3ccccc3c(=O)c2c1` [2-(Propan-2-yl)-9H-thioxanthen-9-one], the AC50 at human CYP1A2 worked out at 7.68 µM; at human CYP2C19 it was 13.1 µM; at human CYP2C9, 15.6 µM; at CYP3A4, 7.71 µM; on human CYP2D6, 27.5 µM.

As to `NS(=O)(=O)c1ccccc1OC(F)(F)F` [2-(Trifluoromethoxy)benzenesulfonamide], the figures for the AC50 on human CYP1A2 and at human CYP2C9 were 51.9 µM and 62.1 µM, respectively. In addition, at human CYP2C19, the “CYP2C19 AC50 (half-maximal activity concentration)” value (“CYP2C19 AC50” below) is “Inconclusive inhibitor”. Further, the “CYP3A4 AC50 (half-maximal activity concentration)” value (from here on “CYP3A4 AC50”) at CYP3A4 is reported as “Inactive”. For the same compound, the “CYP2D6 AC50” value at human CYP2D6 was “Inactive”.

Turning to `CC(=O)c1cc2ccccc2s1` [2-Acetylbenzo[b]thiophene], the AC50 at human CYP1A2 amounted to 6.92 µM; at CYP3A4, 24.6 µM. The “CYP2C19 AC50” value on human CYP2C19 was “Inactive”. Moreover, the “CYP2C9 AC50 (half-maximal activity concentration)” value (shortened to “CYP2C9 AC50”) at human CYP2C9 is on record as “Inactive”. For the same compound, the “CYP2D6 AC50” value on human CYP2D6 is “Inactive”.

Regarding `Nc1ccc(Cl)cc1C(=O)c1ccccc1F` [2-Amino-5-chloro-2'-fluorobenzophenone], the AC50 at human CYP1A2 came to 14.4 µM; on human CYP2C19, 11.9 µM; on human CYP2C9, 16.1 µM; on CYP3A4, 8.75 µM. The “CYP2D6 AC50” value at human CYP2D6 was “Inactive”.

`CC(C)NC(=O)c1ccccc1N` [2-Amino-N-(1-methylethyl)benzamide]: the AC50 was determined as 51.1 µM at human CYP1A2, 3.36 µM on human CYP2C19 and 35.7 µM at CYP3A4. Moreover, the “CYP2C9 AC50” value on human CYP2C9 is “Inactive”. In addition, the “CYP2D6 AC50” value at human CYP2D6 is “Inactive”.

`NC(=O)Nc1nc2ccccc2[nH]1` [2-Benzimidazolylurea]: the AC50 on human CYP1A2 is 47.2 µM; at human CYP2C19, 47.2 µM; at human CYP2C9, 60.5 µM; on CYP3A4, 47.5 µM; on human CYP2D6 it was 34.2 µM.

Take `Brc1nc2ccccc2s1` [2-Bromobenzothiazole]: the values for the AC50 at human CYP1A2 and at CYP3A4 were 11.1 µM and 45.5 µM, respectively. The “CYP2C19 AC50” value at human CYP2C19 is reported as “Inactive”. Moreover, at human CYP2C9, the “CYP2C9 AC50” value is listed as “Inactive”. Further, the “CYP2D6 AC50” value on human CYP2D6 is recorded as “Inactive”.

Consider `CCCCN1C(=O)c2ccccc2C1=O` [2-Butyl-1H-isoindole-1,3(2H)-dione], for which the AC50 on human CYP1A2 was found to be 2.03 µM; at human CYP2C19, 26.6 µM; at human CYP2C9 it was 50.6 µM; at CYP3A4, 25.6 µM. The “CYP2D6 AC50” value at human CYP2D6 was “Inactive”.

Take `Cc1cc(O)c(Cl)cc1C` [2-Chloro-4,5-dimethylphenol]: the values for the AC50 at human CYP1A2, on human CYP2C19 and at human CYP2C9 were 27.7 µM, 61.8 µM and 34.3 µM, respectively. In addition, the “CYP3A4 AC50” value at CYP3A4 is reported as “Inactive”. Further, the “CYP2D6 AC50” value on human CYP2D6 is given as “Inactive”.

In the case of `CCCCCCCCC(CCCCCC)C(=O)O` (stereo not drawn) [2-Hexyldecanoic acid], at human CYP1A2, the “CYP1A2 AC50 (half-maximal activity concentration)” value (“CYP1A2 AC50” below) was “Inactive”. Also, the AC50 at human CYP2C19 turned out to be 34.3 µM; at human CYP2C9 it was 26.2 µM; at CYP3A4, 65.1 µM. Further, the “CYP2D6 AC50” value on human CYP2D6 is “Inactive”.

On to `CCCCCC=CCC1CC(=O)OC1=O` (stereo not drawn) [2-Octen-1-ylsuccinic anhydride], for which the values for the AC50 at human CYP1A2, on human CYP2C19 and on CYP3A4 were 31.9 µM, 55 µM and 31.9 µM, respectively. Besides, the “CYP2C9 AC50” value on human CYP2C9 is “Inactive”. In addition, the “CYP2D6 AC50” value on human CYP2D6 is “Inactive”.

Turning to `O=C(C=Cc1ccccc1)OCCc1ccccc1` [2-Phenylethyl 3-phenylprop-2-enoate], the AC50 on human CYP1A2 is 6.35 µM; on human CYP2C19, 20.8 µM; on human CYP2C9, 25.6 µM; at CYP3A4 it was 15.7 µM. Besides, the “CYP2D6 AC50” value at human CYP2D6 is listed as “Inactive”.

In the case of `O=C(O)c1cc(Br)c(O)c(Br)c1` [3,5-Dibromo-4-hydroxybenzoic acid], the AC50 was determined as 35.7 µM on human CYP1A2, 23.8 µM on human CYP2C19, 68.4 µM at human CYP2C9 and 35.7 µM at CYP3A4. Also, at human CYP2D6, the “CYP2D6 AC50” value is reported as “Inconclusive inhibitor”.

As to `O=C(Cl)c1cc(Cl)cc(Cl)c1` [3,5-Dichlorobenzoyl chloride], the “CYP1A2 AC50” value on human CYP1A2 is “Inactive”. The “CYP2C19 AC50” value at human CYP2C19 is “Inconclusive inhibitor”. The “CYP2C9 AC50” value at human CYP2C9 is recorded as “Inconclusive inhibitor”. In addition, half-maximal activity on CYP3A4 (AC50) was put at 50.2 µM. Moreover, the “CYP2D6 AC50” value at human CYP2D6 is “Inactive”.

For the compound `OCC(CBr)(CBr)CBr` [3-Bromo-2,2-bis(bromomethyl)propanol], at human CYP1A2, the “CYP1A2 AC50” value is given as “Inactive”. The results for the AC50 on human CYP2C19 and on human CYP2C9 were 38.3 µM and 40.5 µM, respectively. For the same compound, the “CYP3A4 AC50” value at CYP3A4 was “Inactive”. Besides, the “CYP2D6 AC50” value at human CYP2D6 is given as “Inactive”.

On to `O=C(Cl)c1ccc(F)c(Cl)c1` [3-Chloro-4-fluorobenzoyl chloride], for which, at human CYP1A2, the “CYP1A2 AC50” value was “Inactive”. For the same compound, the “CYP2C19 AC50” value at human CYP2C19 is recorded as “Inconclusive inhibitor”. At human CYP2C9, the “CYP2C9 AC50” value is “Inactive”. The compound further returned an AC50 on CYP3A4 of 55.5 µM. For the same compound, the “CYP2D6 AC50” value on human CYP2D6 was “Inconclusive inhibitor”.

`O=C(c1ccccc1)c1cccc(O)c1` [3-Hydroxybenzophenone]: the AC50 was 36.2 µM at human CYP1A2, 23.9 µM at human CYP2C19, 3.99 µM on human CYP2C9 and 54.1 µM on human CYP2D6. Also, the “CYP3A4 AC50” value at CYP3A4 is listed as “Inactive”.

In the case of `OCc1cccc(Oc2ccccc2)c1` [3-Phenoxybenzenemethanol], the AC50 was found to be 38.5 µM at human CYP1A2, 24.7 µM on human CYP2C19, 55.8 µM on human CYP2C9 and 64.4 µM on CYP3A4. Besides, the “CYP2D6 AC50” value on human CYP2D6 was “Inconclusive inhibitor”.

Take `O=C(C=Cc1ccccc1)OCCCc1ccccc1` [3-Phenylpropyl cinnamate]: the AC50 at human CYP1A2 amounted to 12.2 µM; on human CYP2C19, 30.1 µM; on human CYP2C9 it was 19.4 µM; on CYP3A4, 25.2 µM. The “CYP2D6 AC50” value on human CYP2D6 was “Inactive”.

In the case of `CCCCCCCCCCCSCC(=O)O` [3-Thiatetradecanoic acid], the “CYP1A2 AC50” value on human CYP1A2 was “Inconclusive inhibitor”. In addition, at human CYP2C19, the “CYP2C19 AC50” value was “Inconclusive inhibitor”. The AC50 on human CYP2C9 stood at 45.2 µM; at CYP3A4, 87.3 µM; on human CYP2D6 it was 20.6 µM.

Consider `Nc1ccc([N+](=O)[O-])c(C(F)(F)F)c1` [3-Trifluoromethyl-4-nitroanilide], for which the half-maximal activity concentration (AC50) on human CYP1A2 was determined as 8.83 µM; at human CYP2C19, 12.9 µM; at human CYP2C9 it was 39.1 µM. For the same compound, the “CYP3A4 AC50” value at CYP3A4 is given as “Inactive”. The “CYP2D6 AC50” value at human CYP2D6 was “Inactive”.

`CC(C)(C)c1ccc(C(=O)CCCCl)cc1` [4'-Tert-butyl-4-chlorobutyrophenone]: the AC50 on human CYP1A2 was found to be 12 µM; on CYP3A4, 21.9 µM. For the same compound, at human CYP2C19, the “CYP2C19 AC50” value is “Inactive”. Moreover, on human CYP2C9, the “CYP2C9 AC50” value is “Inactive”. On human CYP2D6, the “CYP2D6 AC50” value is on record as “Inactive”.

On to `O=C(Nc1ccc([N+](=O)[O-])cc1)Nc1ccc([N+](=O)[O-])cc1` [4,4'-Dinitrodiphenylurea], for which the “CYP1A2 AC50” value on human CYP1A2 was “Inactive”. For the same compound, the “CYP2C19 AC50” value at human CYP2C19 is “Inactive”. The “CYP2C9 AC50” value on human CYP2C9 is on record as “Inactive”. Besides, the AC50 on CYP3A4 turned out to be 11 µM. Moreover, the “CYP2D6 AC50” value on human CYP2D6 is given as “Inactive”.

`CCC(C)(C)C1CCC(O)CC1` (stereo not drawn) [4-(2-Methylbutan-2-yl)cyclohexanol]: the “CYP1A2 AC50” value on human CYP1A2 is recorded as “Inconclusive inhibitor”. Also, the “CYP2C19 AC50” value at human CYP2C19 was “Inactive”. Moreover, the “CYP2C9 AC50” value on human CYP2C9 is “Inactive”. The compound also gave an AC50 at CYP3A4 of 9.66 µM. For the same compound, on human CYP2D6, the “CYP2D6 AC50” value was “Inactive”.

`CCN(CC)c1ccc(C=O)c(O)c1` [4-(Diethylamino)salicylaldehyde]: the values for the AC50 at human CYP1A2, on human CYP2C19 and at human CYP2C9 were 16.4 µM, 50.6 µM and 22.8 µM, respectively. Also, the “CYP3A4 AC50” value at CYP3A4 is on record as “Inactive”. Moreover, the “CYP2D6 AC50” value on human CYP2D6 is given as “Inactive”.

For the compound `CC(C)CC(O)Cc1ccccc1` (stereo not drawn) [4-Methyl-1-phenyl-2-pentanol], the figures for the AC50 at human CYP1A2, at human CYP2C19 and on CYP3A4 were 37 µM, 37 µM and 34.3 µM, respectively. Besides, at human CYP2C9, the “CYP2C9 AC50” value is reported as “Inconclusive inhibitor”. The “CYP2D6 AC50” value on human CYP2D6 is given as “Inactive”.
